Data from US20230293629A1, “METHODS FOR ATTENUATING RELEASE OF INFLAMMATORY MEDIATORS AND PEPTIDES USEFUL THEREIN” (BIOMARCK PHARMACEUTICALS LTD., priority 2006, published 2023).
Where a SMILES comes first, the peptide text is derived from it. Where no end group is shown, it is not given here. The star is where a group is joined. Myristoyl = CCCCCCCCCCCCCC(=O)*

Experiments:
U937 cells = test: PMA-stimulated lysozyme secretion by U937 cells; assay type: cell-based, human; details: 50 μM test peptide, two hour incubation with 100 nM PMA; U937 cells
Description: (§1) Three types of human leukocyte cell lines, specifically the promyelocytic cell line HL-60 clone 15, the monocytic cell line U937, and the lymphocyte natural killer cell line NK-92 were purchased from American Type Culture Collection (ATCC; Rockville, MD). HL-60 clone 15 cells (ATCC CRL-1964) were maintained in medium consisting of RPMI 1640 with L-glutamine supplemented with 10% heat-inactivated fetal bovine serum (Gibco; Invitrogen Co., Carlsbad, CA), 50 IU/ml penicillin, 50 μg/mL streptomycin, and 25 mM HEPES buffer, pH 7.8, at 37° C. in an atmosphere containing 5% CO2. Final differentiation to an eosinophil-like phenotype was initiated by culturing cells at 5×10^5 cells/ml in the above medium containing 0.5 mM butyric acid (Sigma-Aldrich Co.) for 5 days as previously described (Tiffany H L, Li F, Rosenberg H F. Hyperglycosylation of eosinophil ribonucleases in a promyelocytic leukemia cell line and in differentiated peripheral blood progenitor cells. J Leukoc Biol 1995; 58:49-54; Tiffany H L, Alkhatib G, Combadiere C, Berger E A, Murphy P M. CC chemokine receptors 1 and 3 are differentially regulated by IL-5 during maturation of eosinophilic HL-60 cells. J Immunol 1998; 160:1385-1392). U937 cells (ATCC CRL-1593.2) were grown at 37° C. in an atmosphere of 5% CO2 in complete medium consisting of RPMI 1640 with L-glutamine supplemented with 10% FBS, 50 IU/ml penicillin, and 50 μg/mL streptomycin. NK-92 cells (ATCC CRL-2407) were maintained in alpha-MEM medium (Sigma-Aldrich Co.) supplemented with 20% FBS, 100 U/ml of interleukin-2 (IL-2) (Chemicon International, Inc., Temecula, CA), 5×10^−5 M of 2-mercaptoethanol, 50 IU/mL penicillin, and 50 μg/ml streptomycin at 37° C. in an atmosphere containing 5% CO2. Cell morphology was judged by assessment of Wright-Giemsa-stained cells. Viability of cells harvested for experiments was assessed by trypan blue exclusion and populations of cells with viability >95% were used.
(§2) HL-60 clone 15, U937, and NK-92 cells were washed and resuspended at 2.5×10^6 cells/ml in phenol red-free RPMI-1640 (Cellgro; Mediatech, Inc.) for all degranulation assays. Aliquots of cells in 15 ml tubes were preincubated with indicated concentrations of MANS, RNS, or a test peptide for 10 min at 37° C. The cells then were stimulated with PMA for up to 2 hr. A control reference (PMA control reference) was established for each cell type using HL-60 clone 15, U937, and NK-92 cells, respectively, which were washed and resuspended at 2.5×10^6 cells/ml in phenol red-free RPMI-1640 and stimulated with PMA but in the absence of MANS, RNS, or a test peptide for the same time periods. The reaction was terminated by placing tubes on ice and centrifuging cells at 400 g for 5 min at 4° C.
(§3) For measurements of released MPO from neutrophils and released lysozyme from U937 cells, we were able to quantify secretion by using as standards human MPO and egg white […], respectively. For released EPO from HL-60 clone 15 cells and for released granzyme from NK-92 cells, no standards were available to use for quantification. […] To measure intracellular EPO in HL-60 clone 15 cells and intracellular granzyme in NK-92 cells, appropriate aliquots of 0.1% triton X-100-lysed cells were taken for quantification of intracellular granule proteins as described below. All treatments were expressed as percentage of control to minimize variability between cultures.
Lysozyme secreted by U937 cells was measured using a spectrophotometric assay as described previously (Balboa M A, Saez Y, Balsinde J. Calcium-independent phospholipase A2 is required for lysozyme secretion in U937 promonocytes. J Immunol 2003; 170:5276-5280) with slight modification. Thus, 100 μL of sample was mixed with 100 μL of a Micrococcus lysodeikticus (Sigma-Aldrich Co.) suspension (0.3 mg/ml in 0.1 M sodium phosphate buffer, pH 7.0) in a 96-well microplate. The decrease in absorbance at 450 nm was measured at room temperature. […]

HL-60 clone 15 cells = test: PMA-stimulated EPO release from HL-60 clone 15 cells; assay type: cell-based, human; details: 50 μM test peptide, two hour incubation with 100 nM PMA; HL-60 clone 15 cells
Description: as §1, §2, §3
EPO activity released by HL-60 clone 15 cells was assayed using TMB according to a previously established technique (Lacy P, Mahmudi-Azer S, Bablitz B, Hagen S C, Velazquez J R, Man S F, Moqbel R. Rapid mobilization of intracellularly stored RANTES in response to interferon-gamma in human eosinophils. Blood 1999; 94:23-32). Thus, 100 μL of TMB substrate solution was added to 50 μL=microliters) of sample in a 96-well microplate and incubated at room temperature for 15 min (min=minutes). […]

[1] = Qualitative solubility of peptides in 0.5 N saline, pH 6.5

CCCCCCCCCCCCCC(=O)NCC(=O)N[C@@H](C)C(=O)N[C@@H](CCC(N)=O)C(=O)N[C@@H](Cc1ccccc1)C(=O)N[C@@H](CO)C(=O)N[C@@H](CCCCN)C(=O)N[C@H](C(=O)N[C@@H](C)C(=O)N[C@@H](C)C(=O)N[C@@H](CCCCN)C(=O)NCC(=O)N[C@@H](CCC(=O)O)C(=O)N[C@@H](C)C(=O)N[C@@H](C)C(=O)N[C@@H](C)C(=O)N[C@@H](CCC(=O)O)C(=O)N[C@@H](CCCNC(=N)N)C(=O)N1CCC[C@H]1C(=O)NCC(=O)N[C@@H](CCC(=O)O)C(=O)O)[C@@H](C)O (Myristoyl-GAQFSKTAAKGEAAAERPGE-OH; C-terminus assumed)
% Inhibition Lysozyme (U937 cells): 99% | % Inhibition EPO (HL-60 clone 15 cells): 33.6%

CCCCCCCCCCCCCC(=O)N[C@@H](CO)C(=O)N[C@@H](CCCCN)C(=O)N[C@H](C(=O)N[C@@H](C)C(=O)N[C@@H](C)C(=O)N[C@@H](CCCCN)C(=O)NCC(=O)N[C@@H](CCC(=O)O)C(=O)N[C@@H](C)C(=O)N[C@@H](C)C(=O)N[C@@H](C)C(=O)N[C@@H](CCC(=O)O)C(=O)N[C@@H](CCCNC(=N)N)C(=O)N1CCC[C@H]1C(=O)NCC(=O)N[C@@H](CCC(=O)O)C(=O)N[C@@H](C)C(=O)N[C@@H](C)C(=O)N[C@H](C(=O)N[C@@H](C)C(=O)O)C(C)C)[C@@H](C)O (Myristoyl-SKTAAKGEAAAERPGEAAVA-OH; C-terminus assumed)
% Inhibition Lysozyme (U937 cells): 99% | % Inhibition EPO (HL-60 clone 15 cells): 0% | solubility [1]: > 80 mg/mL

CC(=O)N[C@@H](C)C(=O)N[C@@H](C)C(=O)NCC(=O)N[C@@H](CCC(=O)O)C(=O)O [Ac-AAGE, AAGE] (Ac-AAGE-OH; C-terminus assumed)
% Inhibition Lysozyme (U937 cells): 36.9% | % Inhibition EPO (HL-60 clone 15 cells): 39.1% | solubility [1]: > 200 mg/mL

CC(=O)N[C@@H](C)C(=O)N[C@@H](CCCCN)C(=O)NCC(=O)N[C@@H](CCC(=O)O)C(=O)O [Ac-AKGE, AKGE] (Ac-AKGE-OH; C-terminus assumed)
% Inhibition Lysozyme (U937 cells): 7.2% | % Inhibition EPO (HL-60 clone 15 cells): 87.6% | solubility [1]: > 200 mg/mL

CC(=O)N[C@@H](C)C(=O)N[C@@H](CCCCN)C(=O)NCC(=O)N[C@@H](CCC(=O)O)C(N)=O [Ac-AKGE-NH2, AKGE] (Ac-AKGE-NH2)
% Inhibition Lysozyme (U937 cells): 26.8% | % Inhibition EPO (HL-60 clone 15 cells): 45.6% | solubility [1]: > 200 mg/mL

CCCCCCCCCCCCCC(=O)N[C@@H](C)C(=O)N[C@@H](C)C(=O)N[C@@H](C)C(=O)N[C@@H](CCC(=O)O)C(=O)N[C@@H](CCCNC(=N)N)C(=O)N1CCC[C@H]1C(=O)NCC(=O)N[C@@H](CCC(=O)O)C(=O)N[C@@H](C)C(=O)N[C@@H](C)C(=O)N[C@H](C(=O)N[C@@H](C)C(=O)O)C(C)C [MA-AAAERPGEAAVA, AAAERPGEAAVA] (Myristoyl-AAAERPGEAAVA-OH; C-terminus assumed)
% Inhibition Lysozyme (U937 cells): 98% | % Inhibition EPO (HL-60 clone 15 cells): 21.6% | solubility [1]: < 20 mg/mL

CCCCCCCCCCCCCC(=O)N[C@@H](C)C(=O)N[C@@H](C)C(=O)N[C@@H](CCCCN)C(=O)NCC(=O)N[C@@H](CCC(=O)O)C(=O)N[C@@H](C)C(=O)O [MA-AAKGEA, AAKGEA] (Myristoyl-AAKGEA-OH; C-terminus assumed)
% Inhibition Lysozyme (U937 cells): 28.6% | % Inhibition EPO (HL-60 clone 15 cells): 31.4% | solubility [1]: < 1 mg/mL

CCCCCCCCCCCCCC(=O)N[C@@H](C)C(=O)N[C@@H](CCCCN)C(=O)NCC(=O)N[C@@H](CCC(=O)O)C(=O)O [MA-AKGE, AKGE] (Myristoyl-AKGE-OH; C-terminus assumed)
% Inhibition Lysozyme (U937 cells): 28.6% | % Inhibition EPO (HL-60 clone 15 cells): 0% | solubility [1]: < 1 mg/mL

CCCCCCCCCCCCCC(=O)N[C@@H](C)C(=O)N[C@@H](CCCCN)C(=O)NCC(=O)N[C@@H](CCC(=O)O)C(=O)N[C@@H](C)C(=O)N[C@@H](C)C(=O)N[C@@H](C)C(=O)N[C@@H](CCC(=O)O)C(=O)N[C@@H](CCCNC(=N)N)C(=O)N1CCC[C@H]1C(=O)NCC(=O)N[C@@H](CCC(=O)O)C(=O)N[C@@H](C)C(=O)N[C@@H](C)C(=O)N[C@H](C(=O)N[C@@H](C)C(=O)O)C(C)C [MA-AKGEAAAERPGEAAVA, AKGEAAAERPGEAAVA] (Myristoyl-AKGEAAAERPGEAAVA-OH; C-terminus assumed)
% Inhibition Lysozyme (U937 cells): 98% | % Inhibition EPO (HL-60 clone 15 cells): 18.1% | solubility [1]: > 80 mg/mL

CCCCCCCCCCCCCC(=O)NCC(=O)N[C@@H](C)C(=O)N[C@@H](CCC(N)=O)C(=O)N[C@@H](Cc1ccccc1)C(=O)N[C@@H](CO)C(=O)N[C@@H](CCCCN)C(=O)N[C@H](C(=O)N[C@@H](C)C(=O)N[C@@H](C)C(=O)N[C@@H](CCCCN)C(=O)O)[C@@H](C)O [MA-GAQFSKTAAK, GAQFSKTAAK] (Myristoyl-GAQFSKTAAK-OH; C-terminus assumed)
% Inhibition Lysozyme (U937 cells): 56.6% | % Inhibition EPO (HL-60 clone 15 cells): 37.4% | solubility [1]: > 10 mg/mL

CCCCCCCCCCCCCC(=O)NCC(=O)N[C@@H](C)C(=O)N[C@@H](CCC(N)=O)C(=O)N[C@@H](Cc1ccccc1)C(=O)N[C@@H](CO)C(=O)N[C@@H](CCCCN)C(=O)N[C@H](C(=O)N[C@@H](C)C(=O)N[C@@H](C)C(=O)N[C@@H](CCCCN)C(=O)NCC(=O)N[C@@H](CCC(=O)O)C(=O)N[C@@H](C)C(=O)N[C@@H](C)C(=O)N[C@@H](C)C(=O)N[C@@H](CCC(=O)O)C(=O)O)[C@@H](C)O [MA-GAQFSKTAAKGEAAAE, GAQFSKTAAKGEAAAE] (Myristoyl-GAQFSKTAAKGEAAAE-OH; C-terminus assumed)
% Inhibition Lysozyme (U937 cells): 99% | % Inhibition EPO (HL-60 clone 15 cells): 30.3% | solubility [1]: > 2 mg/mL

CCCCCCCCCCCCCC(=O)N[C@@H](CCCNC(=N)N)C(=O)N1CCC[C@H]1C(=O)NCC(=O)N[C@@H](CCC(=O)O)C(=O)N[C@@H](C)C(=O)N[C@@H](C)C(=O)N[C@H](C(=O)N[C@@H](C)C(=O)O)C(C)C [MA-RPGEAAVA, RPGEAAVA] (Myristoyl-RPGEAAVA-OH; C-terminus assumed)
% Inhibition Lysozyme (U937 cells): 99% | % Inhibition EPO (HL-60 clone 15 cells): 0%

CCCCCCCCCCCCCC(=O)N[C@H](C(=O)N[C@@H](C)C(=O)N[C@@H](C)C(=O)N[C@@H](CCCCN)C(=O)NCC(=O)N[C@@H](CCC(=O)O)C(=O)N[C@@H](C)C(=O)N[C@@H](C)C(=O)O)[C@@H](C)O [MA-TAAKGEAA, TAAKGEAA] (Myristoyl-TAAKGEAA-OH; C-terminus assumed)
% Inhibition Lysozyme (U937 cells): 80.2% | % Inhibition EPO (HL-60 clone 15 cells): 0% | solubility [1]: < 1 mg/mL

Ac-AAAERPGEAAVA [Ac-AAAERPGEAAVA, AAAERPGEAAVA]
% Inhibition Lysozyme (U937 cells): 29.5% | % Inhibition EPO (HL-60 clone 15 cells): 51.2%

Ac-AAKGEA [Ac-AAKGEA, AAKGEA]
% Inhibition Lysozyme (U937 cells): 9.2% | % Inhibition EPO (HL-60 clone 15 cells): 10.6% | solubility [1]: > 150 mg/mL

Ac-AKGEAAAERPGEAAVA [Ac-AKGEAAAERPGEAAVA, AKGEAAAERPGEAAVA]
% Inhibition Lysozyme (U937 cells): 34.3% | % Inhibition EPO (HL-60 clone 15 cells): 72.3%

Ac-GAQFSKTAAKGEAAAE [Ac-GAQFSKTAAKGEAAAE, GAQFSKTAAKGEAAAE]
% Inhibition Lysozyme (U937 cells): 8.4% | % Inhibition EPO (HL-60 clone 15 cells): 56.6%

Ac-GAQFSKTAAKGEAAAERPGE
% Inhibition Lysozyme (U937 cells): 0.0% | % Inhibition EPO (HL-60 clone 15 cells): 48.8%

Ac-RPGEAAVA [Ac-RPGEAAVA, RPGEAAVA]
% Inhibition Lysozyme (U937 cells): 0.0% | % Inhibition EPO (HL-60 clone 15 cells): 45.8%
